Test results published in US11419335B2, “N-arylated analogues and uses thereof” (University of Florida Research Foundation, Incorporated, priority 2016, dated 2022).
Values after ≈ are worked out from the molar mass of the structure shown. Read-outs that look alike come from different tables or passages of the source. Marks after values point to notes of the source that are not given here.

Key:
[1] = test system: C. albicans SC5314; assay: Fungal MIC susceptibility assay, C. albicans; type: cell-based, Candida albicans; conditions: Table 4; antifungal
Method: (§1) Fungal minimum inhibition concentrations (MICs) were determined using standard microdilution methods according to the Clinical and Laboratory Standards Institute document M27-A3. The test compound concentration ranged from 0.01 to 100 μM. Amphotericin B (AmB) and itraconazole (ITC) (Fisher Scientific) were included as positive controls. DMSO, the vehicle control, was used at ≤1% v/v for these experiments. The fungal M27-A3 standard MIC assay protocol requires the following inoculum preparation protocol: The organisms were cultured onto PDA medium at 35° C. The inoculum is prepared by picking five colonies from 24-hour old culture of Candida spp. or 48-hour old culture of C. neoformans. The inoculum was suspended in 5 ml of sterile water, the resulting suspension was vortexed for 15 seconds and the cell density adjusted (by adding more sterile water) to an OD530=0.30, which yields a suspension of 1×10^6 to 5×10^6 cells per mL. The suspension was diluted 50 times and then 20 times using RPMI 1640 medium to obtain the two times test inoculum (1×10^3 to 5×10^3 cells per mL). The following steps are the same with the standard bacterial MIC protocol using 96-well plates. NOTE: RPMI 1640 medium was used in the fungal MIC assay (for both cell inoculum and compound dilution).

[2] = test system: C. neoformans ATCC 66031; assay: Fungal MIC susceptibility assay, C. neoformans; type: cell-based; conditions: Table 4; antifungal
Method: as §1

[3] = test system: Acinetobacter baumannii (ATCC 1794); assay: MIC broth microdilution, A. baumannii 1794; type: cell-based
Method: (§2) The minimum inhibitory concentration (MIC) for each tested compound was determined by the broth microdilution method as recommended by the Clinical and Laboratory Standards Institute (CLSI). In a 96-well plate, eleven two-fold serial dilutions of each compound were made in a final volume of 100 μL Luria Broth. Each well was inoculated with ˜10^5 bacterial cells at the initial time of incubation, prepared from a fresh log phase culture (OD600 of 0.5 to 1.0 depending on bacterial strain). The MIC was defined as the lowest concentration of compound that prevented bacterial growth after incubating 16 to 18 hours at 37° C. (MIC values were supported by spectrophotometric readings at OD600). DMSO served as our vehicle and negative control in each microdilution MIC assay. DMSO was serially diluted with a top concentration of 1% v/v.
as §2, with “for each compound was” for “for each tested compound was”, “Standards Institute (CLSI).^6 In a” for “Standards Institute (CLSI). In a”, “concentration of test compound that” for “concentration of compound that”, “37° C. The concentration range tested for each compound during this study was 0.10 to 100 μM. DMSO served” for “37° C. (MIC values were supported by spectrophotometric readings at OD600). DMSO served”, “1% v/v. All MIC values were obtained from a minimum of three independent experiments.” for “1% v/v.”

[4] = test system: Escherichia coli clinical isolate (UAEC-1); assay: MIC broth microdilution, UAEC-1; type: cell-based
Method: as §2
as §2, with “for each compound was” for “for each tested compound was”, “Standards Institute (CLSI).^6 In a” for “Standards Institute (CLSI). In a”, “concentration of test compound that” for “concentration of compound that”, “37° C. The concentration range tested for each compound during this study was 0.10 to 100 μM. DMSO served” for “37° C. (MIC values were supported by spectrophotometric readings at OD600). DMSO served”, “1% v/v. All MIC values were obtained from a minimum of three independent experiments.” for “1% v/v.”

[5] = test system: Pseudomonas aeruginosa (PAO1); assay: MIC broth microdilution, PAO1; type: cell-based
Method: as §2
as §2, with “for each compound was” for “for each tested compound was”, “Standards Institute (CLSI).^6 In a” for “Standards Institute (CLSI). In a”, “concentration of test compound that” for “concentration of compound that”, “37° C. The concentration range tested for each compound during this study was 0.10 to 100 μM. DMSO served” for “37° C. (MIC values were supported by spectrophotometric readings at OD600). DMSO served”, “1% v/v. All MIC values were obtained from a minimum of three independent experiments.” for “1% v/v.”

[6] = test system: VRE ATCC 700221 biofilms; assay: Calgary Biofilm Device assay (MBC/MBEC), VRE 700221; type: cell-based, Enterococcus faecium; conditions: Table 2, CBD assay
Method: (§3) The lid of the Calgary device was then removed, washed and transferred to another 96-well plate containing 2-fold serial dilutions of the test compounds (the “challenge plate”). The total volume of media with compound in each well in the challenge plate is 150 μL. […] The lid was then removed from the challenge plate and MBC/MBEC values were determined using different final assays. […] The MBC values were determined as the concentration giving a lack of visible bacterial growth (i.e., turbidity). […] In select experiments, pegs from the Calgary device were removed from lead biofilm eradicators after final incubation, sonicated for 30 minutes in PBS and plated out to determine biofilm cell killing of lead biofilm-eradicating agents (i.e., colony forming unit per milliliter, CFU/mL).
(§4) Using a Calgary Biofilm Device, bacterial biofilms are established on pegs suspended to the bottom of a 96-well plate lid. Following biofilm establishment on lid pegs, lids are then transferred to new 96-well plates containing serial dilutions of test compound and allowed to incubate. After compound treatment, 96-well plate lids with pegs are once again transferred to 96-well plates containing fresh media. During this final phase of the assay, viable biofilms will grow and disperse planktonic cells into the media where they will grow and give a turbid well result. Conversely, wells that have no growth are a result of pegs that had eradicated bacterial biofilms. The lowest concentration at which no turbidity is observed is the minimum biofilm eradication concentration (MBEC). Using the Calgary Biofilm Device, both minimum biofilm eradication concentrations and minimum bactericidal concentrations (MBC) for planktonic bacterial can be determined using one assay from a single bacterial culture (FIG. 3A).

[7] = test system: vancomycin-resistant Enterococcus faecium (VRE strain ATCC 700221); assay: MIC broth microdilution, VRE 700221; type: cell-based
Method: as §2
as §2, with “for each compound was” for “for each tested compound was”, “Standards Institute (CLSI).^6 In a” for “Standards Institute (CLSI). In a”, “concentration of test compound that” for “concentration of compound that”, “37° C. The concentration range tested for each compound during this study was 0.10 to 100 μM. DMSO served” for “37° C. (MIC values were supported by spectrophotometric readings at OD600). DMSO served”, “1% v/v. All MIC values were obtained from a minimum of three independent experiments.” for “1% v/v.”

[8] = test system: MRSE ATCC 35984 biofilms; assay: Calgary Biofilm Device assay (MBC/MBEC), MRSE 35984; type: cell-based, Staphylococcus epidermidis; conditions: Table 2, CBD assay
Method: as §3, §4

[9] = test system: human red blood cells (hRBC); assay: Hemolysis of red blood cells; type: cell-based
Method: The washing was repeated three times with the buffer. In a 96-well plate, test compounds were added to the buffer from DMSO stocks. […] The plate was then incubated for 1 hour at 37° C. After incubation, the plate was centrifuged for 5 minutes at 3,500 rpm. Then 80 μL of the supernatant was transferred to another 96-well plate and the optical density (OD) was read at 405 nm. DMSO served as our negative control (0% hemolysis) while Triton X served as our positive control (100% hemolysis). […] All reported data correspond to three independent experiments. Ten-point dose-response curves were generated in 96-well plates to determine 50% hemolysis (HC50 values) of red blood cells.
The washing was repeated three times with the buffer. In 96-well plate, the test compounds were added to the buffer. Then 50 μL of 2% of hRBCs in the buffer were added to the test plate to make the final concentrations ranging from 0.2 to 200 μM of each test compound. The plate was then incubated for 1 hour at 37° C. After incubation, the plate was centrifuged for 5 minutes at 3500 rpm and then 80 μL of the supernatant was transferred to another 96-well plate and the Optical Density (OD) was read at 405 nm. DMSO served as our negative control (0% haemolysis) and Triton X served as our positive control (100% haemolysis). The HC50 (concentration of test compound required to lyse red blood cells by 50%) was calculated by plotting the dose-response curve (not shown) with Graphpad Prism 6.0. All data were obtained from three independent haemolysis experiments.

[10] = test system: methicillin-resistant Staphylococcus aureus MRSA-2 (clinical isolate); assay: MIC broth microdilution, MRSA-2; type: cell-based
Method: as §2
as §2, with “for each compound was” for “for each tested compound was”, “Standards Institute (CLSI).^6 In a” for “Standards Institute (CLSI). In a”, “concentration of test compound that” for “concentration of compound that”, “37° C. The concentration range tested for each compound during this study was 0.10 to 100 μM. DMSO served” for “37° C. (MIC values were supported by spectrophotometric readings at OD600). DMSO served”, “1% v/v. All MIC values were obtained from a minimum of three independent experiments.” for “1% v/v.”

[11] = test system: Klebsiella pneumoniae (ATCC 13883); assay: MIC broth microdilution, K. pneumoniae 13883; type: cell-based
Method: as §2
as §2, with “for each compound was” for “for each tested compound was”, “Standards Institute (CLSI).^6 In a” for “Standards Institute (CLSI). In a”, “concentration of test compound that” for “concentration of compound that”, “37° C. The concentration range tested for each compound during this study was 0.10 to 100 μM. DMSO served” for “37° C. (MIC values were supported by spectrophotometric readings at OD600). DMSO served”, “1% v/v. All MIC values were obtained from a minimum of three independent experiments.” for “1% v/v.”

[12] = test system: methicillin-resistant Staphylococcus epidermidis (MRSE strain ATCC 35984); assay: MIC broth microdilution, MRSE 35984; type: cell-based
Method: as §2
as §2, with “for each compound was” for “for each tested compound was”, “Standards Institute (CLSI).^6 In a” for “Standards Institute (CLSI). In a”, “concentration of test compound that” for “concentration of compound that”, “37° C. The concentration range tested for each compound during this study was 0.10 to 100 μM. DMSO served” for “37° C. (MIC values were supported by spectrophotometric readings at OD600). DMSO served”, “1% v/v. All MIC values were obtained from a minimum of three independent experiments.” for “1% v/v.”

[13] = test system: MRSA BAA-1707 biofilms; assay: Calgary Biofilm Device assay (MBC/MBEC), MRSA BAA-1707; type: cell-based, Staphylococcus aureus; conditions: Table 2, CBD assay
Method: as §3, §4

[14] = test system: MRSA BAA-1707; assay: MIC broth microdilution, MRSA BAA-1707; type: cell-based, Staphylococcus aureus
Method: as §2, with “The MIC was defined as the lowest concentration of compound that prevented bacterial growth after incubating 16 to 18 hours at 37° C.” left out
Each well was inoculated with ˜10^5 bacterial cells at the initial time of incubation, prepared from a fresh log phase culture (OD600 of 0.5 to 1.0 depending on bacterial strain). […] The concentration range tested for each compound during this study was 0.10 to 100 μM. DMSO served as our vehicle and negative control in each microdilution MIC assay. DMSO was serially diluted with a top concentration of 1% v/v. All MIC values were obtained from a minimum of three independent experiments.

SMILES: C[C@@H]1[C@H](O)[C@@H](C)/C=C/C=C/C=C/C=C/C=C/C=C/C=C/[C@H](O[C@@H]2O[C@H](C)[C@@H](O)[C@H](N)[C@@H]2O)C[C@@H]2O[C@](O)(C[C@@H](O)C[C@@H](O)[C@H](O)CC[C@@H](O)C[C@@H](O)CC(=O)O[C@H]1C)C[C@H](O)[C@H]2C(=O)O [Amp. B, Amphotericin B, reference compound]
- MIC C. albicans SC5314 [1]: 0.78 µM (≈ 0.721 µg/mL)
- MIC C. neof 66031 [2]: 0.1 µM (≈ 0.0924 µg/mL)

SMILES: CCCCCCCCCCCC[N+](C)(C)Cc1ccccc1.[Cl-] [BAC-12, reference compound]
- MIC A. baumannii 1794 ([3]; Table 1): 75^a μM
- MIC A. bau. 1794 ([3]; Table 4): 75a micromolar
- MIC ([4]; Table 1): 50 µM
- MIC UAEC-1 ([4]; Table 4): 50 µM
- MIC ([5]; Table 1): >100 µM
- MIC PAO1 ([5]; Table 4): >100 µM
- VRE 700221 MBEC ([6]; biofilm): 23.5 µM
- MBC ([6]; planktonic cells): 31.3 µM
- MIC ([7]; Table 1, read-out: MIC VRE 700221): 25 µM
- MIC ([7]; Table 2, read-out: VRE 700221 MIC): 25 µM
- MIC VRE 700221 ([7]; Table 4): 25 µM
- MRSE 35984 MBEC ([8]; biofilm): > 2000 µM
- MBC ([8]; planktonic cells): 11.7 µM
- HC50 [9]: > 100 µM
- MIC ([10]; MRSA-2 and MRSA BAA-1707, read-out: MIC against two MRSA strains): 6.25 µM
- MIC ([10]; Table 1, read-out: MIC MRSA-2): 6.25 µM
- MIC MRSA-2 ([10]; Table 4): 6.25 µM
- MIC K. pneumoniae 13883 ([11]; Table 1): 75^a μM
- MIC K. pneu. 13883 ([11]; Table 4): 75a micromolar
- MIC ([12]; Table 1, read-out: MIC MRSE 35984): 3.13 µM
- MIC ([12]; Table 2, read-out: MRSE 35984 MIC): 3.13 µM
- MIC MRSE 35984 ([12]; Table 4): 3.13 µM
- MRSA BAA-1707 MBEC ([13]; biofilm): > 1000 µM
- MBC ([13]; planktonic cells): 15.6 µM
- MIC ([14]; Table 1, read-out: MIC MRSA BAA-1707): 6.25 µM
- MIC ([14]; Table 2, read-out: MRSA BAA-1707 MIC): 6.25 µM
- MIC MRSA 1707 ([14]; Table 4): 6.25 µM
